Assay results published in US10154992B2, “Compounds and methods for treating HIV infection” (THE REGENTS OF THE UNIVERSITY OF CALIFORNIA, priority 2016, dated 2018).
Values after ≈ are worked out from the molar mass of the structure shown. Read-outs that look alike come from different tables or passages of the source. Where a SMILES comes first, the peptide text is derived from it. The star is where a group is joined. Cbz = O=C(OCc1ccccc1)*

Experiments:
Rev-RRE IIB interaction [1] = details: in vitro
Text: To further validate the hits, we used an electrophoretic mobility shift assay (EMSA) to evaluate which of the three hit scaffolds were capable of disrupting the Rev-RRE IIB interaction in vitro.

Rev-RRE IIB interaction [2] = target: T1, Rev-RRE IIB interaction (Human immunodeficiency virus type 1 group M subtype B, UniProt P04608+P04618); type: cell-based, HIV
T1 construct: with a fusion to HIV Rev (residues 3-70) was generated; expressed in transfected cells
T1 sequence (P04608 whole entry, looked up, the tested form may be a part): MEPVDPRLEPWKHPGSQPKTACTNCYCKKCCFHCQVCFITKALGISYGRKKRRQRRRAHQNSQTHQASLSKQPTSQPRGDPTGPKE
T1 sequence (P04618 whole entry, looked up, the tested form may be a part): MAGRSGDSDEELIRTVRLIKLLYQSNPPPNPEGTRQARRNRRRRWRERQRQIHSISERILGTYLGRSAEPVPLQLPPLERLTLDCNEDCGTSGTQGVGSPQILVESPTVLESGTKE
Protocol: A library of approximately 4500 carboxamide-containing compounds was assembled and tested in the reporter cell line at 30 μM. Reporter cells were plated in a white 96-well plate and compounds were added to the cells using a Biomek FX robotic liquid handler (Beckman Coulter). The cells were incubated with the compound for 48 hours then assayed for luciferase activity (Promega Bright Glo). The cytotoxicity of each compound was determined in parallel via MTT-based cell viability assays.
(§1) Cells were counted and plated into white 384-well or 96-well cell-culture treated assay plates and compounds were added. After 48 hours, the cells were prepared for luminescence assays that were performed on a plate reader (Tecan Evolution or MD Analyst). The cytotoxicity of each compound was determined in parallel via MTT-based cell viability assays.
as §1, with “Tat hybrid reporter assay. […] Previously characterized thienopyridines and diaminoacridine were used as controls. Cells” for “Cells”, “384-well” for “384-well or 96-well”, “lumincescence” for “luminescence”
The RRE IIB-Rev screening cell line was plated in 384-well assay plates and compounds were added to the cells to a final concentration of 30 μM. Cells were prepared and assayed for luciferase activity. […] In parallel, MTT cell viability assays were performed to assess the toxicity of compounds and minimize the level of false positives.

PBMC = assay: MTT toxicity in the PBMC replication assay; type: cell-based, Human; details: PBMC experiment; read-out: TC50 by MTT assay
Text: Results of this experiment are shown in FIG. 9 where the replication and toxicity curves for isolate 93BR021 (CCR5-tropic, group M, subtype B) are shown.

[3] = target: T2, HIV TAR Luciferase reporter with HIV Tat 1-72 (Human immunodeficiency virus type 1 group M subtype B, UniProt P04608); assay: Tat-hybrid transient reporter assay in 293T cells, TAR reporter; type: cell-based; details: 100 nM compound; 293T transient transfection
T2 construct: 5 ng of the HIV Tat 1-72 expression construct; expressed in transfected cells; host or cells: 293T, transient transfection
T2 sequence (P04608 1-72): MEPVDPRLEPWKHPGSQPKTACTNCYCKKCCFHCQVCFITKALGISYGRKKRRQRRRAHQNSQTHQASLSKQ
Protocol: (§2) Testing the specificity of the thienopyridine compounds using the Tat-hybrid reporter system.
(§3) A 96 well plate was seeded with 10,000 293T cells. We transfected each well with 10 ng of the HIV TAR Luciferase reporter and 5 ng of the HIV Tat 1-72 expression construct or 10 ng of the HIV RRE IIB Luciferase reporter and 5 ng of the HIV Tat (1-48)-Rev 3-70 expression construct, and with 2 ng of a CMV Renilla luciferase control. Compound 4a was added to a final concentration of 3.16, 10, 31.6, and 100 nM. Each condition was performed in quadruplet. Note, it was necessary to use transient transfection assays rather than stable cell lines in order to compare the two reporter systems, although the level of inhibition conferred by the compounds in the transient assays was lower than in the cell lines. The cells were incubated for 48 hours and dual luciferase assays were performed according to the manufacturers protocol (Promega). Reporter activity was normalized against the Renilla control.

Caco-2 permeability = type: in vitro ADME; details: human
Text: (§4) We next evaluated analogs 2b, 2f, 4a, and 4e in a panel of standard in vitro ADME assays to assess drug-like properties and the potential for efficacy in animals.

[4] = system: HIV-1 provirus in U1 cells; assay: U1 activation (latency) assay, p24 ELISA; type: cell-based
Protocol: (§5) U1 activation assay. U1 cells obtained from the AIDS Research and Reference Reagent Program were maintained under standard culture conditions in RPMI 1640 supplemented with 10% fetal bovine serum (heat inactivated), 2 mM L-glutamine, 100U/mL penicillin and 100 μg/mL streptomycin. U1 cells contain an integrated copy of a phorbol ester inducible HIV-1 provirus and addition of phytohemagglutinin (PHA) to the cell culture was used to induce virus production. On the day of the assay, the U1 cells were activated with PHA and 250,000 cells were plated in 96-well plates. Test compounds were diluted in media and applied to the cells at final concentrations from 1 to 10,000 nM. Cultures were incubated for 3 days and supernatants harvested. Cell-free virus production was measured by p24 ELISA on culture supernatant. Compound toxicity was determined by MTT cell-viability assay in parallel assays.

HIV-1 isolate NL4-3 = assay: Virus spreading / replication assay in Jurkat cells, p24 ELISA; type: cell-based; details: Human immunodeficiency virus 1, NL43, Jurkat; Table 2; NL4-3; read-out: Jurkat HIV-1 replication assay
Protocol: Virus spreading assay. Jurkat (E6-1) cells (NIH AIDS Reagent Program) were cultured in RPMI media supplemented with 25 mM HEPES pH 7.4, 10% heat-inactivated fetal calf serum (Hyclone, Waltham Mass.), and 1% penicillin/streptomycin. 2.5×10^5 Jurkat cells were inoculated with 250 pg p24 in 250 μl media in a 96-well flat bottom polystyrene cell culture microplate. Input virus was removed after 18 hours via washing cells phosphate-buffered saline (PBS). Cells were resuspended in 250 μl of media containing compounds at the described concentrations. Cells were incubated at 37° C., 5% CO2 and supernatant samples were removed every 48 hours and replaced with fresh media containing the compounds. Viral replication was quantified using ELISA to quantify p24 viral capsid protein in the culture supernatant. Mouse monoclonal and rabbit polyclonal α-p24 antibodies used in the ELISA were obtained from the NIH AIDS Reagent Program. Toxicity was monitored using the MTT cell viability assay (Mosmann, T. (1983). J Immunol Methods 65, 55-63).

[5] = Aqueous solubility pH 7.4; type: physicochemical; details: aqueous solution, pH 7.4, pH 7.4, aqueous buffer
Text: as §4

[6] = system: HIV RRE (Rev-dependent) reporter; assay: Rev reporter assay in 293T cells, p24 ELISA; type: cell-based; details: Human immunodeficiency virus 1, HEK-293T, Table 2
Protocol: Rev reporter assay. In the Rev reporter assay, 293T cells were transfected with an HIV RRE (Rev-dependent) reporter plus a pSV2 Rev expression plasmid (Hope, T. J., et al. (1990) Proc. Natl. Acad. Sci. USA 87, 7787-7791). Compounds were incubated with the cells for 48 hours and reporter activity was assessed by p24 ELISA. Leptomycin B, an inhibitor of the Crm1 pathway that inhibits Rev-dependent export, was included as a control. The cytotoxicity of each compound was determined in parallel via MTT-based cell viability assays.

[7] = target: T3, HIV RRE IIB Luciferase reporter with HIV Tat (1-48)-Rev 3-70 (Human immunodeficiency virus type 1 group M subtype B, UniProt P04608+P04618); assay: Tat-hybrid transient reporter assay in 293T cells, RRE IIB reporter; type: cell-based; details: 100 nM compound; 293T transient transfection
T3 construct: HIV Tat (1-48)-Rev 3-70 expression construct; expressed in transfected cells; host or cells: 293T, transient transfection
T3 sequence (P04608 whole entry, looked up): as the sequence (P04608 whole entry, looked up, the tested form may be a part) above
T3 sequence (P04618 whole entry, looked up): as the sequence (P04618 whole entry, looked up, the tested form may be a part) above
Protocol: as §2, §3

[8] = Human liver microsome stability; type: in vitro ADME; details: human liver microsomes; read-out: HLM T1/2
Text: The more lipophilic analogs 4a and 4e also appear more prone to oxidative metabolism in the presence of human liver microsomes. This is perhaps unsurprising given the presence of methoxyphenyl (4a) and benzylic methylene (4e) functions, both potential sites of oxidative metabolism.

[9] = system: Vpu-dependent degradation of Rev; assay: Vpu-dependent degradation of Rev, western blot in transfected 293T cells; type: cell-based, HIV; details: co-transfection with 100 ng Vpu expression plasmid
Protocol: Vpu is a regulator of Rev. In this experiment, Rev was expressed in the presence or absence of Vpu and levels of both proteins were measured by western blot. Flag tagged Rev and either Flag tagged Vpu or Flag tagged GFP were transfected to 293T cells.
Next we tested the Vpu-dependent degradation of Rev with the proteasome inhibitor MG132.

U1 cells = assay: MTT cell viability in parallel with the U1 assay; type: cell-based; details: Table 6; read-out: U1 TC50
Protocol: as §5

[10] = MTT cell viability run in parallel with the Tat-hybrid assay; type: cell-based; details: human, Tat-hybrid reporter cell lines (HeLa); Table 6; second 'EC50' entry of the cell, values D/E
Summary of the method: (§6)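 HeLa reporter lines (Tat-hybrid) treated with compound for 48 hours, then luciferase luminescence measured. Cytotoxicity assessed in parallel by MTT viability; thienopyridines and diaminoacridine served as controls.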

[11] = system: Tat-hybrid reporter cell lines (HeLa); assay: as above; type: cell-based; details: Table 6; at 50,000 nM
Summary of the method: as §6

Nc1ccc2cc3ccc(N)cc3nc2c1 [3,6 diaminoacridine, reference compound]
inhibition of the Rev-RRE interaction by EMSA (Rev-RRE IIB interaction [1]): inhibition of Rev-RRE formation is observed | activity in the Tat-hybrid reporter assay (Rev-RRE IIB interaction [2]): inhibits expression of the reporter

Cc1cn([C@H]2C[C@H](N=[N+]=[N-])[C@@H](CO)O2)c(=O)[nH]c1=O [AZT]
CC50 (PBMC): < 40000 nM

COc1ccc(-c2cncc3sc(C(N)=O)cc23)cc1 [Compound 4a, 4-(4-methoxyphenyl)thieno[2,3-c]pyridine-2-carboxamide]
expression of the HIV TAR reporter [3]: not similarly inhibited | Papp (Caco-2 permeability): 59.4 ×10⁻⁶ cm/s | potency in the U1 assay [4]: low-nM potency | IC50 ([4]; Human immunodeficiency virus 1, Table 2, read-out: U1 cell IC50): < 100 nM | IC50 (HIV-1 isolate NL4-3): < 100 nM | solubility [5]: 0.44 µM (≈ 0.125 µg/mL) | EC50 [6]: 100 to 500 nM | expression of the HIV RRE IIb reporter [7]: significantly inhibited | half-life [8]: 8 min | activity in the Tat-hybrid reporter assay (Rev-RRE IIB interaction [2]): low-nM potency

CC(C)C[C@@H](C=O)NC(=O)[C@H](CC(C)C)NC(=O)[C@H](CC(C)C)NC(=O)OCc1ccccc1 [MG132] (Cbz-Leu-Leu-Leu-aldehyde)
effect on Vpu-dependent degradation of Rev [9]: blocks Vpu-dependent degradation of Rev

CN(C)c1ccnc2sc(C(N)=O)c(N)c12 [drawing 241]
IC50 ([4]; Table 6, read-out: U1 IC50): > 500 nM | CC50 (U1 cells): > 40000 nM | EC50 at 48 h [10]: > 40000 nM | Tat hybrid cell viability at 50,000 nM [11]: Y (Y = 30-60%)
